Patent US8044075B2, “IL-8 receptor antagonists” (GlaxoSmithKline, priority 2006, dated 2011)

What follows are molecules tested on Primary human neutrophils (assay: Neutrophil chemotaxis assay (IL-8 or GRO-α as chemoattractant)). Conditions: 0.75 h, IL-8 or GRO-α at EC80, 45 minutes, span over all compounds tested, units (nM, uM) given within the value, read-out: IC50 range of the compounds tested, neutrophil chemotaxis.
Type: cell-based
Method: The in vitro inhibitory properties of these compounds were determined in a neutrophil chemotaxis assay. Primary human neutrophils were isolated from peripheral whole blood using percoll discontinuous gradient centrifugation, dextran sedimentation and hypotonic lysis. The chemoattractants IL-8 (CXCL8) or GRO-α (CXCL1) were placed in the bottom chamber of a 96 multi-well chamber (ChemoTx System, Neuro Probe, Gaithersburg, Md.). The agonist concentration used was an EC80 concentration. The two chambers are separated by a 5 um polycarbonate membrane. When compounds of this invention were tested, they were preincubated with the cells prior to placement on the top of the filter. Chemotaxis was allowed to proceed for 45 minutes in a humidified incubator at 37° C. with 5% CO2. At the end of the incubation period, the membrane was removed and the migrated cells in the bottom chamber were transferred to a 96-well plate. These cells were measured using a luminescent cell viability assay (Celltiter-Glo, Promega, Madison, Wis.). Each sample was tested in duplicate and each compound repeated at least three times. Positive control cells were cells without compound added and represent the maximum chemotactic response. The negative control (unstimulated) was with no chemokine added to the bottom chamber. The difference between the positive control and the negative control represents the chemotactic activity of the cells.

Row | Structure (SMILES) | IC50
1 | CCNS(=O)(=O)c1ccc(F)c(C(=O)Nc2nnc(C(C)(C)c3ccccc3)s2)c1 [Example 1, 5-[(ethylamino)sulfonyl]-2-fluoro-N-[5-(1-methyl-1-phenylethyl)-1,3,4-thiadiazol-2-yl]benzamide] | 63 to 8000 nM
2 | CCNS(=O)(=O)c1cc(F)c(F)c(C(=O)Nc2nnc(-c3ccc(F)cc3)s2)c1 [Example 6, 5-[(ethylamino)sulfonyl]-2,3-difluoro-N-[5-(4-fluorophenyl)-1,3,4-thiadiazol-2-yl]benzamide] | 63 to 8000 nM
3 | CC(C)CNS(=O)(=O)c1ccc(F)c(C(=O)Nc2nnc(-c3ccc(F)cc3)s2)c1 [Example 18, 2-fluoro-N-[5-(4-fluorophenyl)-1,3,4-thiadiazol-2-yl]-5-{[(2-methylpropyl)amino]sulfonyl}benzamide] | 63 to 8000 nM
4 | O=C(Nc1nnc(-c2ccc(F)cc2)s1)c1cc(S(=O)(=O)Nc2ccccc2)ccc1F [Example 20, 2-fluoro-N-[5-(4-fluorophenyl)-1,3,4-thiadiazol-2-yl]-5-[(phenylamino)sulfonyl]benzamide] | 63 to 8000 nM
5 | CCNS(=O)(=O)c1cc(F)c(Cl)c(C(=O)Nc2nnc(-c3ccc(F)cc3)s2)c1 [Example 22, 2-chloro-5-[(ethylamino)sulfonyl]-3-fluoro-N-[5-(4-fluorophenyl)-1,3,4-thiadiazol-2-yl]-benzamide] | 63 to 8000 nM
6 | CCNS(=O)(=O)c1cc(F)c(F)c(C(=O)Nc2nnc(C(C)(C)C)s2)c1 [Example 27, N-[5-(1,1-dimethylethyl)-1,3,4-thiadiazol-2-yl]-5-[(ethylamino)sulfonyl]-2,3-difluorobcnzamidc] | 63 to 8000 nM
7 | CCNS(=O)(=O)c1cc(F)c(F)c(C(=O)Nc2nnc(C(C)(C)c3ccccc3)s2)c1 [Example 29, 5-[(ethylamino)sulfonyl]-2,3-difluoro-N-[5-(1-methyl-1-phenylethyl)-1,3,4-thiadiazol-2-yl]benzamide] | 63 to 8000 nM
8 | CC(C)(c1ccccc1)c1nnc(NC(=O)c2cc(S(N)(=O)=O)cc(Cl)c2Cl)s1 [Example 36, 5-(aminosulfonyl)-2,3-dichloro-N-[5-(1-methyl-1-phenylethyl)-1,3,4-thiadiazol-2-yl]benzamide] | 63 to 8000 nM

The remaining lines, values ahead:

Row | IC50 | Structure (SMILES)
9 | 63 to 8000 nM | CC(C)(C)c1nnc(NC(=O)c2cc(S(N)(=O)=O)ccc2F)s1 [Example 39, 5-(aminosulfonyl)-N-[5-(1,1-dimethylethyl)-1,3,4-thiadiazol-2-yl]-2-fluorobenzamide]
10 | 63 to 8000 nM | NS(=O)(=O)c1ccc(F)c(C(=O)Nc2nnc(-c3ccc(F)cc3)s2)c1 [Example 44, 5-(aminosulfonyl)-2-fluoro-N-[5-(4-fluorophenyl)-1,3,4-thiadiazol-2-yl] benzamide]
11 | 63 to 8000 nM | CC(C)(c1ccccc1)c1nnc(NC(=O)c2cc(S(=O)(=O)NC3CC3)ccc2F)s1 [Example 49, 5-[(cyclopropylamino)sulfonyl]2-fluoro-N-[5-(1-methyl-1-phenylethyl)-1,3,4-thiadiazol-2-yl]benzamide]
12 | 63 to 8000 nM | CCNS(=O)(=O)c1ccc(F)c(C(=O)Nc2nnc(C3(C)CCCCC3)s2)c1 [Example 57, 5-[(cthylamino)sulfonyl]-2-fluoro-N-[5-(1-methylcyclohexyl)-1,3,4-thiadiazol-2-yl] benzamide]
13 | 63 to 8000 nM | CCNS(=O)(=O)c1ccc(F)c(C(=O)Nc2nnc(C3CCCC3)s2)c1 [Example 58, N-(5-cyclopentyl-1,3,4-thiadiazol-2-yl)-5-[(ethylamino)sulfonyl]-2-fluorobenzamide]
14 | 63 to 8000 nM | CCNS(=O)(=O)c1ccc(F)c(C(=O)Nc2nnc(C3(C)CCCC3)s2)c1 [Example 59, 5-[(ethylamino)sulfonyl]-2-fluoro-N-[5-(1-methylcyclopentyl)-1,3,4-thiadiazol-2-yl]benzamide]
15 | 63 to 8000 nM | CCNS(=O)(=O)c1ccc(F)c(C(=O)Nc2nnc(C(C)(C)c3ccccc3F)s2)c1 [Example 63, 5-[(ethylamino)sulfonyl]-2-fluoro-N-{5-[1-(2-fluorophenyl)-1-methylethyl]-1,3,4-thiadiazol-2-yl}-benzamide]
16 | 63 to 8000 nM | O=C(Nc1nnc(C2(c3cccc(F)c3)CCC2)s1)c1cc(S(=O)(=O)NCC(F)(F)F)ccc1F [Example 72, 2-fluoro-N-{5-[1-(3-fluorophenyl)-cyclobutyl]-1,3,4-thiadiazol-2-yl}-5-([(2,2,2-trifluoroethyl)amino]-sulfonyl}benzamide]
17 | 63 to 8000 nM | CCNS(=O)(=O)c1ccc(F)c(C(=O)Nc2nnc(C3(c4cccc(F)c4)CCC3)s2)c1 [Example 76, 5-[(ethylamino)sulfonyl]-2-fluoro-N-{5-[1-(3-fluorophenyl)-cyclobutyl]-1,3,4-thiadiazol-2-yl}-benzamide]
18 | 63 to 8000 nM | O=C(Nc1nnc(C2(c3cccc(F)c3)CCC2)s1)c1cc(S(=O)(=O)NCC2CC2)ccc1F [Example 77, 5-{[(cyclopropylmethyl)amino]sulfonyl}-2-fluoro-N-{5-[1-(3-fluorophenyl)-cyclobutyl]-1,3,4-thiadiazol-2-yl}-benzamide]
19 | 63 to 8000 nM | CCNS(=O)(=O)c1ccc(F)c(C(=O)Nc2nnc(C3(c4ccccc4)CCC3)s2)c1 [Example 92, 5-[(ethylamino)sulfonyl]-2-fluoro-N-[5-(1-phenylcyclobutyl)-1,3,4-thiadiazol-2-yl]-benzamide]

The molecules below were run on GROα-induced expression of the integrin CD11b on neutrophils in human whole blood (assay: CD11b human whole blood assay). Conditions: Neutrophil, 10 nM GROα, read-out: IC50, inhibition of GROα-induced CD11b expression.
Type: cell-based
Method: The compounds indicated were tested for their ability to inhibit the GROα-induced expression of the integrin CD11b on neutrophils in human whole blood.
Blood was drawn (9 ml) using a butterfly line and a 10 ml syringe containing 0.2 ml of working Sodium Heparin. The blood was kept at 37° C. until placed on ice in step 5 below. Compound stock solutions were then diluted to 12 times the maximum final concentration, 120 uM. Half Log serial dilutions were then performed in vehicle. Ten microliters of the compound dilutions or vehicle were then added to the appropriate 12×75 polypropylene tubes. One hundred microliters of whole blood was added per tube and incubated for 10 minutes, in a 37° C. water bath with initial (gentle) agitation and again at 5 minutes. The GROα stock was diluted 1:166.66 in 0.1% BSA-DPBS to “12x” concentration of 120 nM and 10 ul of the GROα dilution or 0.1% BSA-DPBS was added to the appropriate tubes so that the final GROα concentration equaled 10 nM. The tubes were incubated for 10 min at 37° C. with gentle hand agitation and again at 5 minutes. Samples were then placed on ice and 250 ul of ice cold CellFix working dilution was added followed by a one minute incubation on ice. 1.5 ml Eppendorf tubes were readied during GROα incubation by adding the appropriate antibodies. Every tube received 10 ul of CD11b-FITC and 5 ul of CD 16-PE, except for the isotype control which received 10 ul of IgG2a-FITC instead of CD11b. Addition of 50 ul of the fixed blood from each tube was added to the appropriate Eppendorf tube. Samples were allowed to then incubate for 20 min at 4° C. in the dark. Addition of the blood/antibody mixtures to 500 ul of cold DPBS were added to the appropriately labeled 12×75 polystyrene tube. The resulting mixture was kept on ice. LDS stock (10 ul) was added and the mixture was incubated for 10 min at 4° C. before flow analysis. Samples were kept in a darkened environment. The LDS addition was staggered as the samples were collected on the flow cytometer so that all samples were run ˜10-20 minutes post-LDS addition. […]

Row | IC50 | Structure (SMILES)
20 | < 5 µM | CCNS(=O)(=O)c1ccc(F)c(C(=O)Nc2nnc(C(C)(C)C)s2)c1 [Example 28, N-[5-(1,1-dimcthylcthyl)-1,3,4-thiadiazol-2-yl]-5-[(ethylamino)sulfonyl]-2-fluorobenzamide]
21 | < 5 µM | CCNS(=O)(=O)c1ccc(F)c(C(=O)Nc2nnc(C3(c4ccccc4)CCCC3)s2)c1 [Example 52, 5-[(ethylamino)sulfonyl]-2-fluoro-N-[5-(1-phenylcyclopentyl)-1,3,4-thiadiazol-2-yl]benzamide]
22 | < 5 µM | CC(C)(c1ccccc1)c1nnc(NC(=O)c2cc(S(N)(=O)=O)ccc2F)s1 [Example 61, 5-(aminosulfonyl)-2-fluoro-N-[5-(1-methyl-1-phenylethyl)-1,3,4-thiadiazol-2-yl]-benzamide]
